According to ChEMBL document CHEMBL5223143, “Identification of novel benzimidazole derivatives as highly potent AMPK activators with anti-diabetic profiles” (Bioorg Med Chem Lett, 2023):
Activity calls are given as the source filed them. The rule behind the calls is not given here.

Columns and labels:
[1] = target: AMPK alpha2/beta2/gamma1 (Homo sapiens) (UniProt P54646+O43741+P54619); assay: Activation of human recombinant AMPK A2/B2/G1 assessed as increase in AMPK phosphorylation using FL-peptide as substrate incubated for 120 mins by EZ reader method; type: protein-complex assay; conditions: filed as activator
AMPK alpha2/beta2/gamma1 (Homo sapiens), sequence (O43741 whole entry, looked up): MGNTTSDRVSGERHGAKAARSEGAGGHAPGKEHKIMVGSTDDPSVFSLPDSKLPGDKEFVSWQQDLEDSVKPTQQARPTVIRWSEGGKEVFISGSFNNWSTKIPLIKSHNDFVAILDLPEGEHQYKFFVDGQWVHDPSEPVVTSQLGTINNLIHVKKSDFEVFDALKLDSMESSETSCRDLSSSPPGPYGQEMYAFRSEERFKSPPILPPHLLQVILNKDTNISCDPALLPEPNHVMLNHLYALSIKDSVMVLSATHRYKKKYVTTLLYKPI
AMPK alpha2/beta2/gamma1 (Homo sapiens), sequence (P54619 whole entry, looked up): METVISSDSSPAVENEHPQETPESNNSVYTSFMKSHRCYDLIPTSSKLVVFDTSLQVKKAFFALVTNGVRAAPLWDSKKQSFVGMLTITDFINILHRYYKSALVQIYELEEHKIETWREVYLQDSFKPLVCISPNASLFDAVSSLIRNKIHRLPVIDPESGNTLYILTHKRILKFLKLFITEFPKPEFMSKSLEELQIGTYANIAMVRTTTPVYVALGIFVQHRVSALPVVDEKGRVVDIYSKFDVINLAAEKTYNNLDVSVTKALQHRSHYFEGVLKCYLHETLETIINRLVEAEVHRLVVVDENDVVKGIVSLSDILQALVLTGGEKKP
AMPK alpha2/beta2/gamma1 (Homo sapiens), sequence (P54646 whole entry, looked up): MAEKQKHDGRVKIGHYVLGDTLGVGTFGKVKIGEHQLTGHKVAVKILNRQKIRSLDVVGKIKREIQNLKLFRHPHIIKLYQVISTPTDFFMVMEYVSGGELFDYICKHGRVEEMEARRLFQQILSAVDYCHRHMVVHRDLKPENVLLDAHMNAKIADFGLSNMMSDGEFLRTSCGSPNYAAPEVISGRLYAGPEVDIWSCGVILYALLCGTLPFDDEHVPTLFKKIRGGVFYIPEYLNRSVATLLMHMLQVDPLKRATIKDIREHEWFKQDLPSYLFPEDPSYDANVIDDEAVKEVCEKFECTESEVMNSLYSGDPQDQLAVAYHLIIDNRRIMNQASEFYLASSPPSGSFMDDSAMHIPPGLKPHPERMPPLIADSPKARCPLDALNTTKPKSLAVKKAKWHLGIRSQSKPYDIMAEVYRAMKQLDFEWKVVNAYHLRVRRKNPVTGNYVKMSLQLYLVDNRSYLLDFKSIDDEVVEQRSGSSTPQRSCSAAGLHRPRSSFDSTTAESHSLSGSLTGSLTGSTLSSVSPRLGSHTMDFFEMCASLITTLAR

L6 = assay: Activation of AMPK alpha2beta2gamma1 in rat L6 cells assessed as increase in AMPK phosphorylation by ELISA assay; type: cell-based; conditions: filed as activator
Cytochrome P450 2D6 = Cytochrome P450 2D6 (Homo sapiens, UniProt P10635); assay: Inhibition of CYP2D6 in human liver microsomes using dextromethorphan as substrate; type: ADME, Microsome
Cytochrome P450 2D6, sequence (P10635 whole entry): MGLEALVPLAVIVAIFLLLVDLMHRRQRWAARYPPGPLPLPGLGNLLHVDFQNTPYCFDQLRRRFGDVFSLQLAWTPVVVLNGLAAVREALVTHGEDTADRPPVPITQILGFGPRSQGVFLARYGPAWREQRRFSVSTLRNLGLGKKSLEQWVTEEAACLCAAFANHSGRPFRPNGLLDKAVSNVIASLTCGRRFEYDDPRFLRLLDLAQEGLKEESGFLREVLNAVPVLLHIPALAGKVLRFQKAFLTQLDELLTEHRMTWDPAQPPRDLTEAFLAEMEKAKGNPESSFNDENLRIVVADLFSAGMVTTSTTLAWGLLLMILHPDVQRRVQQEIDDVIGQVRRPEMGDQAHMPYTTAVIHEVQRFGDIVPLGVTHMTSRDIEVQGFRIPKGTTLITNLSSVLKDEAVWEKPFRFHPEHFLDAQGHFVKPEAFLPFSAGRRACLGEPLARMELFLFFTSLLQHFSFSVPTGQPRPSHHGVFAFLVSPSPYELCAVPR

[2] = Cmax in rat at 0.5 mg/kg,iv; type: ADME, organism-based; design: dose 0.5 mg/kg, route iv; conditions: in vivo
Mus musculus [3] = assay: Antidiabetic activity against diabetic KKAy mouse model assessed as decrease in HbA1c level at 0.3 to 3 mg/kg,po bid observed upto 21 days; type: functional, organism-based; conditions: dose 0.3-3 mg/kg, time <= 21.0 day
[4] = AUC in rat at 1 mg/kg,po; type: ADME, organism-based; design: dose 1 mg/kg, route po; conditions: in vivo
Cytochrome P450 2C9 = Cytochrome P450 2C9 (Homo sapiens, UniProt P11712); assay: Inhibition of CYP2C9 in human liver microsomes using tolbutamide as substrate; type: ADME, Microsome
Cytochrome P450 2C9, sequence (P11712 whole entry): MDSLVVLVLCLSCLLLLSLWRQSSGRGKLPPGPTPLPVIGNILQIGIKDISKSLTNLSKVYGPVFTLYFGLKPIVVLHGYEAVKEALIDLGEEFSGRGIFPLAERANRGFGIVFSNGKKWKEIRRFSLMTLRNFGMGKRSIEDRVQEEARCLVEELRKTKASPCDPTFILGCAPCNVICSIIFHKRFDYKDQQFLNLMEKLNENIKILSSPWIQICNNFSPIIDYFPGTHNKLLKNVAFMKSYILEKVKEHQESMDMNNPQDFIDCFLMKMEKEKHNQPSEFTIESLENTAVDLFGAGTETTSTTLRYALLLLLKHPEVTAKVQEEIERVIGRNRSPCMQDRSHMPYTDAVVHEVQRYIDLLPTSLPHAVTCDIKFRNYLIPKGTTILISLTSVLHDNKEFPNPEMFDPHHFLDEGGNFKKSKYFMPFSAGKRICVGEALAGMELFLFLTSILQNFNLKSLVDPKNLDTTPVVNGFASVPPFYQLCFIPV

Mus musculus [5] = assay: Antidiabetic activity against diabetic KKAy mouse model assessed as decrease in plasma glucose level at 0.3 to 3 mg/kg,po bid observed upto 21 days; type: functional, organism-based; conditions: dose 0.3-3 mg/kg, time <= 21.0 day
Cytochrome P450 3A4 = Cytochrome P450 3A4 (Homo sapiens, UniProt P08684); assay: Inhibition of CYP3A4 in human liver microsomes using terfenedine as substrate; type: ADME, Microsome
Cytochrome P450 3A4, sequence (P08684 whole entry): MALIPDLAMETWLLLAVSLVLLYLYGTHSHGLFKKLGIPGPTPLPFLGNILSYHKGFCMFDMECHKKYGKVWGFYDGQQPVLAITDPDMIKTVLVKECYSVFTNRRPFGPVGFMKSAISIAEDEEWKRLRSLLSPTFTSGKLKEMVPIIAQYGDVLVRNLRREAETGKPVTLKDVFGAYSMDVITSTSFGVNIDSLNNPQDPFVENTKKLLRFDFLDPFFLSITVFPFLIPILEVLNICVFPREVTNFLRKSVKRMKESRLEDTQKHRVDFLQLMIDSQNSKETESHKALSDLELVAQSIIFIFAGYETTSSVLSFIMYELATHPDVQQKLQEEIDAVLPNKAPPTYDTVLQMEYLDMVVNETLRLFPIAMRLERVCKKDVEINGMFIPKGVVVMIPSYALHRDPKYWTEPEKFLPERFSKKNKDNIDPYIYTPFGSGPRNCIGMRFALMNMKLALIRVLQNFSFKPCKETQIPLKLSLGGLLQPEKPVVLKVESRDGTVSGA

[6] = Metabolic stability in human liver microsomes assessed as compound remaining incubated for 30 mins; type: ADME, Microsome; conditions: read-out: Stability
[7] = Metabolic stability in rat liver microsomes assessed as compound remaining incubated for 30 mins; type: ADME, Microsome; conditions: read-out: Stability
[8] = […] in rat muscle tissue at 0.5 mg/kg,iv; type: ADME, organism-based
Mus musculus [9] = assay: Antidiabetic activity against diabetic KKAy mouse model assessed as increase in ACC phosphorylation in skeletal muscle at 0.3 to 3 mg/kg,po bid; type: functional, organism-based; conditions: dose 0.3-3 mg/kg
[10] = Protein binding in serum (unknown origin) assessed as free fraction by equilibrium dialysis method; type: ADME, cell-free
Cytochrome P450 1A2 = target: T1, Cytochrome P450 1A2 (Homo sapiens, UniProt P05177); assay: Inhibition of CYP1A2 in human liver microsomes using 7-ethoxyresorufin as substrate; type: ADME, Microsome
T1 sequence (P05177 whole entry): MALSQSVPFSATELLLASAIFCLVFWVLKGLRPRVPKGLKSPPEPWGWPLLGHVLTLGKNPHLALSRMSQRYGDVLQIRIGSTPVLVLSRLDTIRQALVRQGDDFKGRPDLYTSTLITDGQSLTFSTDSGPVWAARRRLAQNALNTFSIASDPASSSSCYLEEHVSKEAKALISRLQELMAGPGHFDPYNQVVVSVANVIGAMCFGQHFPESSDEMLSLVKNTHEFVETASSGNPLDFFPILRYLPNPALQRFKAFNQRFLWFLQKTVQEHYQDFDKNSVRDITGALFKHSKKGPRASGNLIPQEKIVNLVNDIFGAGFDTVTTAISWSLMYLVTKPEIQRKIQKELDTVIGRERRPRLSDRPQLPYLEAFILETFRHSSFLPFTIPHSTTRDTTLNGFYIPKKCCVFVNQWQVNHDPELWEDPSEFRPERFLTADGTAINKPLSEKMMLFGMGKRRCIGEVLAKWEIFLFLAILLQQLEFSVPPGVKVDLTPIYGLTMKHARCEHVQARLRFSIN

[11] = Total clearance in rat at 0.5 mg/kg,iv; type: ADME, organism-based; conditions: in vivo
Mus musculus [12] = assay: Antidiabetic activity against diabetic KKAy mouse model assessed as acute glucose lowering effect at 0.3 to 3 mg/kg,po bid; type: functional, organism-based; conditions: dose 0.3-3 mg/kg
[13] = […] in rat liver at 0.5 mg/kg,iv; type: ADME, organism-based
Cytochrome P450 2C19 = Cytochrome P450 2C19 (Homo sapiens, UniProt P33261); assay: Inhibition of CYP2C19 in human liver microsomes using mephenytoin as substrate; type: ADME, Microsome
Cytochrome P450 2C19, sequence (P33261 whole entry): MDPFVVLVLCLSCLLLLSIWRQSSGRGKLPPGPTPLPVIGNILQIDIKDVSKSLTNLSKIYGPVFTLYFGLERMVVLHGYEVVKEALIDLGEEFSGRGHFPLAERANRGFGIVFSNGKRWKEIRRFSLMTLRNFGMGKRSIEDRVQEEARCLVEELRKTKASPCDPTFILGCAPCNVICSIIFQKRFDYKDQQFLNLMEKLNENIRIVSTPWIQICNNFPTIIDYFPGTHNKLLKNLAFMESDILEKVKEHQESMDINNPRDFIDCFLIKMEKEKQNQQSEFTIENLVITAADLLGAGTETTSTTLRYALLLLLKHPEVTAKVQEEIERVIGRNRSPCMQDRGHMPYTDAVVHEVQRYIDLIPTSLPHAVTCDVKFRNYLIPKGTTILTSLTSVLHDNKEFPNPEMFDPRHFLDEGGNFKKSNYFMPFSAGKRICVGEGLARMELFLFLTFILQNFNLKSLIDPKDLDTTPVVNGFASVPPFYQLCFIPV

Question: With `CC(=O)Nc1cc(F)c2c(c1)CC[C@@H]2Nc1nc2nc(O[C@@H]3CO[C@H]4[C@@H]3OC[C@H]4O)[nH]c2cc1Cl` as the compound, how does the EC150 [1] read?
Answer: 0.0047 µM

Question: What about the EC150 (L6) of the same compound?
Answer: 0.584 µM

Question: For `COCCOc1cc(F)c2c(c1)CC[C@@H]2Nc1nc2nc(O[C@@H]3CO[C@H]4[C@@H]3OC[C@H]4O)[nH]c2cc1Cl`, which IC50 (Cytochrome P450 2D6) is on record?
Answer: > 20 µM

Question: What about the Cmax [2] of the same compound?
Answer: 65.4 ng/mL

Question: And the Activity (Mus musculus [3])?
Answer: Dose-Dependent Effect

Question: What about the AUC [4] of the same compound?
Answer: 347 ng·h/mL

Question: And the IC50 (Cytochrome P450 2C9)?
Answer: > 20 µM

Question: And the Activity (Mus musculus [5])?
Answer: Active

Question: What about the IC50 (Cytochrome P450 3A4) of the same compound?
Answer: > 20 µM

Question: And the remaining at 0.5 h [6]?
Answer: 91%

Question: And the remaining at 0.5 h [7]?
Answer: 81%

Question: And the Kp [8]?
Answer: 1.51

Question: And the EC150 [1]?
Answer: 0.0016 µM

Question: What about the Activity (Mus musculus [9]) of the same compound?
Answer: Dose-Dependent Effect

Question: What about the fraction unbound [10] of the same compound?
Answer: 0.031

Question: What about the IC50 (Cytochrome P450 1A2) of the same compound?
Answer: > 20 µM

Question: And the EC150 (L6)?
Answer: 0.0443 µM

Question: What about the clearance [11] of the same compound?
Answer: 9.02 mL/min/kg

Question: And the Activity (Mus musculus [12])?
Answer: Active

Question: What about the Kp [13] of the same compound?
Answer: 5.64

Question: And the IC50 (Cytochrome P450 2C19)?
Answer: > 20 µM

Question: With `O[C@@H]1CO[C@H]2[C@@H]1OC[C@H]2Oc1nc2nc(NCc3ccccc3C(F)(F)F)c(Cl)cc2[nH]1` as the compound, how does the EC150 [1] read?
Answer: 8.9 µM

Question: Which EC150 [1] does the source give for `OCc1ccccc1CNc1nc2nc(O[C@@H]3CO[C@H]4[C@@H]3OC[C@H]4O)[nH]c2cc1Cl` here?
Answer: 9.5 µM

Question: Which EC150 [1] does the source give for `Cn1cc(-c2cc(F)c3c(c2)CC[C@@H]3Nc2nc3nc(O[C@@H]4CO[C@H]5[C@@H]4OC[C@H]5O)[nH]c3cc2Cl)cn1` here?
Answer: 0.0044 µM

Question: And the EC150 (L6)?
Answer: 0.0847 µM

Question: With `O[C@@H]1CO[C@H]2[C@@H]1OC[C@H]2Oc1nc2nc(NCCCc3ccccc3)c(Cl)cc2[nH]1` as the compound, how does the EC150 [1] read?
Answer: 15 µM

Question: Which EC150 [1] does the source give for `O[C@@H]1CO[C@H]2[C@@H]1OC[C@H]2Oc1nc2nc(N[C@H]3CCc4cccc(F)c43)c(Cl)cc2[nH]1` here?
Answer: 0.002 µM

Question: And the EC150 (L6)?
Answer: 1.06 µM

Question: For `CN(Cc1ccccc1)c1nc2nc(O[C@@H]3CO[C@H]4[C@@H]3OC[C@H]4O)[nH]c2cc1Cl`, which EC150 [1] is on record?
Answer: 4.9 µM

Question: With `O[C@@H]1CO[C@H]2[C@@H]1OC[C@H]2Oc1nc2nc(NCc3ccccc3F)c(Cl)cc2[nH]1` as the compound, how does the EC150 [1] read?
Answer: 0.048 µM

Question: For `O[C@@H]1CO[C@H]2[C@@H]1OC[C@H]2Oc1nc2nc(NCc3ccccc3)c(Cl)cc2[nH]1`, which EC150 [1] is on record?
Answer: 0.16 µM

Question: With `O[C@@H]1CO[C@H]2[C@@H]1OC[C@H]2Oc1nc2nc(N[C@H]3CCc4ccccc43)c(Cl)cc2[nH]1` as the compound, how does the EC150 [1] read?
Answer: 0.0031 µM

Question: Which EC150 [1] does the source give for `CS(=O)(=O)c1ccccc1CNc1nc2nc(O[C@@H]3CO[C@H]4[C@@H]3OC[C@H]4O)[nH]c2cc1Cl` here?
Answer: 23 µM
